Assay results: US9212171B2, “Ethynyl compounds” (Hoffmann-La Roche Inc., priority 2011, dated 2015)

Biological target: human mGlu5a receptor (Homo sapiens (Human), UniProt P41594)
Assay: Intracellular Ca2+ mobilization assay (mGlu5 PAM)
Format: cell-based
Details: for EC50: HEK-293 cells stably transfected with human mGlu5a, L-glutamate added at EC20 (typically around 80 μM); for Emax / Eff. (%): maximal response in % of the maximal stimulatory effect obtained with saturating concentrations of L-glutamate; for Emax: read-out: Eff. (%)
Description: A monoclonal HEK-293 cell line stably transfected with a cDNA encoding for the human mGlu5a receptor was generated; for the work with mGlu5 Positive Allosteric Modulators (PAMs), a cell line with low receptor expression levels and low constitutive receptor activity was selected to allow the differentiation of agonistic versus PAM activity. Cells were cultured according to standard protocols (Freshney, 2000) in Dulbecco's Modified Eagle Medium with high glucose supplemented with 1 mM glutamine, 10% (vol/vol) heat-inactivated bovine calf serum, Penicillin/Streptomycin, […] hygromycin and 15 μg/ml blasticidin (all cell culture reagents and antibiotics from Invitrogen, Basel, Switzerland).
About 24 hrs before an experiment, 5×10^4 cells/well were seeded in poly-D-lysine coated, black/clear-bottomed 96-well plates. The cells were loaded with 2.5 μM Fluo-4AM in loading buffer (1×HBSS, 20 mM HEPES) for 1 hr at 37° C. and washed five times with loading buffer. The cells were transferred into a Functional Drug Screening System 7000 (Hamamatsu, Paris, France), and 11 half logarithmic serial dilutions of test compound at 37° C. were added and the cells were incubated for 10-30 min. with on-line recording of fluorescence. Following this pre-incubation step, the agonist L-glutamate was added to the cells at a concentration corresponding to EC20 (typically around 80 μM) with on-line recording of fluorescence; in order to account for day-to-day variations in the responsiveness of cells, the EC20 of glutamate was determined immediately ahead of each experiment by recording of a full dose-response curve of glutamate.
Responses were measured as peak increase in fluorescence minus basal (i.e. fluorescence without addition of L-glutamate), normalized to the maximal stimulatory effect obtained with saturating concentrations of L-glutamate. Graphs were plotted with the % maximal stimulatory using XLfit, a curve fitting program that iteratively plots the data using Levenburg Marquardt algorithm. The single site competition analysis equation used was y=A+((B−A)/(1+((x/C)D))), where y is the % maximal stimulatory effect, A is the minimum y, B is the maximum y, C is the EC50, x is the log 10 of the concentration of the competing compound and D is the slope of the curve (the Hill Coefficient). From these curves the EC50 (concentration at which half maximal stimulation was achieved), the Hill coefficient as well as the maximal response in % of the maximal stimulatory effect obtained with saturating concentrations of L-glutamate were calculated.
A depression of the signal observed after addition of the EC20 concentration of L-glutamate was indicative of an inhibitory activity of the test compound.

human mGlu5a receptor, sequence (P41594 other isoform, or with tags, fused parts or gaps): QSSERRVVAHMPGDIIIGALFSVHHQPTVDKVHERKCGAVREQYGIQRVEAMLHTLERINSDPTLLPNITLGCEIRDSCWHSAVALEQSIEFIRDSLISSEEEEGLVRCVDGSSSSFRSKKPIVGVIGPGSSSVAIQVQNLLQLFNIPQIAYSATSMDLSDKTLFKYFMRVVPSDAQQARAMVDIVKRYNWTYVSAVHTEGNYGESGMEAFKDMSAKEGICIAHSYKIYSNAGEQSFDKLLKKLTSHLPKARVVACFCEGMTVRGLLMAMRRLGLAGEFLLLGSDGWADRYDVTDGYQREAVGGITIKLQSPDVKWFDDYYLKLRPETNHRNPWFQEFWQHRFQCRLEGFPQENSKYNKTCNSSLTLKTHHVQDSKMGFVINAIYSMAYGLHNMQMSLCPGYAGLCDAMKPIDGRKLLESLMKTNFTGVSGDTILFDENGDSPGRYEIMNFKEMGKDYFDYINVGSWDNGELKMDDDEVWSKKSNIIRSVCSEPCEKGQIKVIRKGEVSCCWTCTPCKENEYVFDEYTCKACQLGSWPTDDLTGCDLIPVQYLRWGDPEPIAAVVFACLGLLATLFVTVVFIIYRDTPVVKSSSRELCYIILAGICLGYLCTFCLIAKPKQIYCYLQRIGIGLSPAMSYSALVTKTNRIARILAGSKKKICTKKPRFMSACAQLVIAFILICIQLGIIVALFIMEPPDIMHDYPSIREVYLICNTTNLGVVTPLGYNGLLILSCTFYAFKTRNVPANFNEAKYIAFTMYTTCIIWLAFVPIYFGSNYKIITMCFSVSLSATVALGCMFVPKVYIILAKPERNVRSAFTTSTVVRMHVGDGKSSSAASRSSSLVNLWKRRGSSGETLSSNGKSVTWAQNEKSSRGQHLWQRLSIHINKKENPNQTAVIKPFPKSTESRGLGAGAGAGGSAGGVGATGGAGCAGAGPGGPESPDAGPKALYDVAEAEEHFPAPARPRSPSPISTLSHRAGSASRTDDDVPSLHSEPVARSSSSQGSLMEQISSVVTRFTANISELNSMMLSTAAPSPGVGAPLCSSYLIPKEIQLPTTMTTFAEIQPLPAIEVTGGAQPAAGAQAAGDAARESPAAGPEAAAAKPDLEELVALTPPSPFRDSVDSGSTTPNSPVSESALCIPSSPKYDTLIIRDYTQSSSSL

SMILES	EC50 [nM]	Emax [%]	Eff. (%)
CN1C(=O)[C@H](c2ccc(C#Cc3cccc(F)c3)cn2)[C@@H]2CCCC[C@@H]21 (racemic) [Example 39, (3SR,6SR,7SR)-3-[5-(3-Fluoro-phenylethynyl)-pyridin-2-yl]-1-methyl-octahydro-indol-2-one]	141	61	
CN1C(=O)C(c2ccc(C#Cc3ccnc(Cl)c3)cn2)CC1(C)C (racemic) [Example 44, (RS)-3-[5-(2-Chloro-pyridin-4-ylethynyl)-pyridin-2-yl]-1,5,5-trimethyl-pyrrolidin-2-one]	88	32	
CN1CCCC[C@@H](c2ccc(C#Cc3ccccc3)cn2)C1=O (single isomer, unassigned) [Example 25, (S or R)-1-Methyl-3-(5-phenylethynyl-pyridin-2-yl)-azepan-2-one]	35	70	
CN1CCCC[C@H](c2ccc(C#Cc3ccccc3)cn2)C1=O (single isomer, unassigned) [Example 26, (R or S)-1-Methyl-3-(5-phenylethynyl-pyridin-2-yl)-azepan-2-one]	265	69	
CN1C(=O)[C@@H](c2ccc(C#Cc3ccccc3)cn2)[C@@H]2CCC[C@@H]21 (single isomer, unassigned) [Example 28, (3R,3aS,6aS) or (3S,3aR,6aR)-1-Methyl-3-(5-phenylethynyl-pyridin-2-yl)-hexahydro-cyclopenta[b]pyrrol-2-one]	24		58
CN1C(=O)[C@@H](c2ccc(C#Cc3cccc(F)c3)cn2)[C@@H]2CCC[C@@H]21 (single isomer, unassigned) [Example 31, (3R,3aS,6aS) or (3S,3aR,6aR)-3-[5-(3-Fluoro-phenylethynyl)-pyridin-2-yl]-1-methyl-hexahydro-cyclopenta[b]pyrrol-2-one]	25		51
CN1C(=O)[C@H](c2ccc(C#Cc3cccc(F)c3)cn2)[C@H]2CCC[C@H]21 (single isomer, unassigned) [Example 32, (3S,3aR,6aR) or (3R,3aS,6aS)-3-[5-(3-Fluoro-phenylethynyl)-pyridin-2-yl]-1-methyl-hexahydro-cyclopenta[b]pyrrol-2-one]	48	68	
CN1C(=O)[C@@H](c2ccc(C#Cc3ccnc(Cl)c3)cn2)CC1(C)C (single isomer, unassigned) [Example 45, (S) or (R)-3-[5-(2-Chloro-pyridin-4-ylethynyl)-pyridin-2-yl]-1,5,5-trimethyl-pyrrolidin-2-one]	65	36	
CN1C(=O)[C@H](c2ccc(C#Cc3ccnc(Cl)c3)cn2)CC1(C)C (single isomer, unassigned) [Example 46, (R) or (S)-3-[5-(2-Chloro-pyridin-4-ylethynyl)-pyridin-2-yl]-1,5,5-trimethyl-pyrrolidin-2-one]	103	40	
CN1C(=O)C(c2ccc(C#Cc3ccc(F)cc3)nn2)CC1(C)C (centres unmarked) [Example 10, 3-(6-((4-fluorophenyl)ethynyl)pyridazin-3-yl)-1,5,5-trimethylpyrrolidin-2-one]	247	99	
CN1C(=O)[C@@H](c2ccc(C#Cc3ccccc3)cn2)[C@@H]2CCCC[C@@H]21 [Example 36, (3R,6S,7S)-1-Methyl-3-(5-phenylethynyl-pyridin-2-yl)-octahydro-indol-2-one]	84	92	
CN1C(=O)[C@H](c2ccc(C#Cc3ccccc3)cn2)[C@H]2CCCC[C@H]21 [Example 37, (3S,6R,7R)-1-Methyl-3-(5-phenylethynyl-pyridin-2-yl)-octahydro-indol-2-one]	84	49	
CN1C(=O)[C@@H](c2ccc(C#Cc3cccc(F)c3)cn2)[C@@H]2CCCC[C@@H]21 [Example 40, (3R,6S,7S)-3-[5-(3-Fluoro-phenylethynyl)-pyridin-2-yl]-1-methyl-octahydro-indol-2-one]	89	68	
CN1C(=O)[C@H](c2ccc(C#Cc3cccc(F)c3)cn2)[C@H]2CCCC[C@H]21 [Example 41, (3S,6R,7R)-3-[5-(3-fluoro-phenylethynyl)-pyridin-2-yl]-1-methyl-octahydro-indol-2-one]	68	56	
CN1C(=O)[C@@H](c2ccc(C#Cc3ccc(F)cc3)cn2)[C@@H]2CCCC[C@@H]21 [Example 42, (3R,6S,7S)-3-[5-(4-Fluoro-phenylethynyl)-pyridin-2-yl]-1-methyl-octahydro-indol-2-one]	57	63	
CN1C(=O)[C@H](c2ccc(C#Cc3ccc(F)cc3)cn2)[C@H]2CCCC[C@H]21 [Example 43, (3S,6R,7R)-3-[5-(4-fluoro-phenylethynyl)-pyridin-2-yl]-1-methyl-octahydro-indol-2-one]	146	53	
